This is an account of results in ChEMBL document CHEMBL3526017, “Predicting the drug interaction potential of AMG 853, a dual antagonist of the D-prostanoid and chemoattractant receptor-homologous molecule expressed on T helper 2 cells receptors” (Drug Metab Dispos, 2012).

Usually Ki stands for a dissociation constant, usually derived from enzyme kinetics or from competition with a known ligand. The Vmax is the rate approached at saturating substrate. In general, IC50 refers to the concentration at which inhibition is half-maximal.

Holding throughout (type): ADME
The target of data set [1] is Cytochrome P450 2E1 (Homo sapiens, UniProt P05181). Put plainly: Inhibition of CYP2E1 in human liver microsomes using chlorzoxazone as substrate after 5 to 30 mins by LC-MS/MS analysis. (In general: Microsomes from liver hold many membrane-bound enzymes, among them those of drug oxidation.)
Data set [2] concerns the target T1, Cytochrome P450 3A4 (Homo sapiens, UniProt P08684). Put plainly: Inhibition of CYP3A4 in human liver microsomes using midazolam as substrate after 5 to 30 mins by LC-MS/MS analysis.
Data set [3] deals with T2, Cytochrome P450 1A2 (Homo sapiens, UniProt P05177).
T2 sequence (P05177 whole entry): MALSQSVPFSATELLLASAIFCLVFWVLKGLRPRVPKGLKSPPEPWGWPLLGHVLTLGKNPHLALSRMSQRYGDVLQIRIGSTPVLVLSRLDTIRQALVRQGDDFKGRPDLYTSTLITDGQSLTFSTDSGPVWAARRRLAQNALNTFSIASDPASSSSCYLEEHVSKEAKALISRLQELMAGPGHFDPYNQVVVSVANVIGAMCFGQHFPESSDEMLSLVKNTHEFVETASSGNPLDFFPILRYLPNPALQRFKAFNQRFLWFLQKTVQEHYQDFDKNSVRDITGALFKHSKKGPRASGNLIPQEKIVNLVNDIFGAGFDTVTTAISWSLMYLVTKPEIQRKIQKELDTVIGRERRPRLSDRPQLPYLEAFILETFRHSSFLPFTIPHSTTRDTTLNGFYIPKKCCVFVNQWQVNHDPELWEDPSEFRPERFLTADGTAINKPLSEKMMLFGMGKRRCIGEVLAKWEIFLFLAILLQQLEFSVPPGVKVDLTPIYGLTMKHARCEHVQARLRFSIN
Put plainly: Inhibition of CYP1A2 in human liver microsomes using phenacetin as substrate after 5 to 30 mins by LC-MS/MS analysis.

Data set [4] concerns the target T3, UDP-glucuronosyltransferase 1A1 (Homo sapiens, UniProt P22309).
T3 sequence (P22309 whole entry): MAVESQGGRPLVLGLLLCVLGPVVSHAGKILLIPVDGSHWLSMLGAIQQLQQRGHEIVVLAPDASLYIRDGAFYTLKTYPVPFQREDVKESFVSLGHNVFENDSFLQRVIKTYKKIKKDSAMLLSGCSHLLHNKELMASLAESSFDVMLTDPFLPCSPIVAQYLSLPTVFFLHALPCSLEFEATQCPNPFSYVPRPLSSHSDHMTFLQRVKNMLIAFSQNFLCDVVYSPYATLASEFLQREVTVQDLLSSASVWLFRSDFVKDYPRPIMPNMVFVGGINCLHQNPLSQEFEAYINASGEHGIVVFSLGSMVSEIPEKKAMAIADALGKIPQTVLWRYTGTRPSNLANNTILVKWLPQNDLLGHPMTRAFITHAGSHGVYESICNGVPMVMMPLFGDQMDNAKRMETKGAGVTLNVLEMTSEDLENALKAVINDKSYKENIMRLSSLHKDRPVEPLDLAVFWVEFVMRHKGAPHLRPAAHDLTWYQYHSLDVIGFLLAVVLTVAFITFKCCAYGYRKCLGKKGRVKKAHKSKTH
Put plainly: Drug metabolism assessed as human recombinant UGT1A1-mediated compound formation treated with AMG 853 at 10 uM after 30 mins by LC-MS/MS analysis. The following applies: recombinant enzyme, 0.5 h.

For data set [5], the target named is T3, UDP-glucuronosyltransferase 1A1. Put plainly: Drug metabolism assessed as human recombinant UGT1A1-mediated compound formation treated with AMG 853 after 45 mins by LC-MS/MS analysis in presence of UDPGA. The following applies: recombinant enzyme, 0.75 h.
The target in data set [6] is Cytochrome P450 2D6 (Homo sapiens, UniProt P10635). In words: Inhibition of CYP2D6 in human liver microsomes using dextromethorphan as substrate after 5 to 30 mins by LC-MS/MS analysis.
Data set [7] has as its target T4, Cytochrome P450 2C8 (Homo sapiens, UniProt P10632).
T4 sequence (P10632 whole entry): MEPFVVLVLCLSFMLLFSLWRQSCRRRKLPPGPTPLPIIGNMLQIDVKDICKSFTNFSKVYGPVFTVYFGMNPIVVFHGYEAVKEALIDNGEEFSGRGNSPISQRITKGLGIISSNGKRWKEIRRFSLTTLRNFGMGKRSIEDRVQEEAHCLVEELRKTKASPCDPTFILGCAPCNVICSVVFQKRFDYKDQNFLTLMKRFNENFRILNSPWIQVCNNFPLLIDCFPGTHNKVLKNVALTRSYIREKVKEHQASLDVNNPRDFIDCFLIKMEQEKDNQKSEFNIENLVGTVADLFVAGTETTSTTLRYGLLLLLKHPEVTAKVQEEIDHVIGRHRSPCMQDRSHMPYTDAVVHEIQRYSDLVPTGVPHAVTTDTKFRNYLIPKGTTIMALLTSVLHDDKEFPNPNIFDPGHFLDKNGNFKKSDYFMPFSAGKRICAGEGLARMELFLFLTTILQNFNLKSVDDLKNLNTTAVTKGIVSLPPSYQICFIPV
In words: Biphasic inhibition of CYP2C8 in human liver microsomes assessed as montelukast 36-hydroxylation after 20 mins by LC-MS/MS analysis.

The target of data set [8] is T5, Cytochrome P450 2B6 (Homo sapiens, UniProt P20813).
T5 sequence (P20813 whole entry): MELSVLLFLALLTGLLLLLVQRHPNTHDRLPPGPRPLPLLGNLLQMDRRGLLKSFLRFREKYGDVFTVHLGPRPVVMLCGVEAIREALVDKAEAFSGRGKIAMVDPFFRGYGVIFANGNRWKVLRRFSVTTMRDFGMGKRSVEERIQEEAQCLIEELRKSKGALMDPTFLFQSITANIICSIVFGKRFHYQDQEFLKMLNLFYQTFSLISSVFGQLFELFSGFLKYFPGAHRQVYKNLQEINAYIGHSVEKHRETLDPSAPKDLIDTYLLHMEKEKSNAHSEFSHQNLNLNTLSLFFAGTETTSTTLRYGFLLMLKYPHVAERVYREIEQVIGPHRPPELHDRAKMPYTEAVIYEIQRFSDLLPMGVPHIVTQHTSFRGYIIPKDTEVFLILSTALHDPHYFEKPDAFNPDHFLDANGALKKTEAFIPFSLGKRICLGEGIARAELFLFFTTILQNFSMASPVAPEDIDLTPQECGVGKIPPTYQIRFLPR
Put plainly: Inhibition of CYP2B6 in human liver microsomes using bupropion as substrate after 5 to 30 mins by LC-MS/MS analysis.

Data set [9] addresses T1, Cytochrome P450 3A4. In words: Inhibition of CYP3A4 in human liver microsomes using testosterone as substrate after 5 to 30 mins by LC-MS/MS analysis.
The target of data set [10] is Cytochrome P450 2C9 (Homo sapiens, UniProt P11712). Put plainly: Inhibition of CYP2C9 in human liver microsomes using diclofenac as substrate after 5 to 30 mins by LC-MS/MS analysis.
The target of data set [11] is Cytochrome P450 2C19 (Homo sapiens, UniProt P33261). In words: Inhibition of CYP2C19 in human liver microsomes using (S)-Mephenytoin as substrate after 5 to 30 mins by LC-MS/MS analysis.
The target of data set [12] is T4, Cytochrome P450 2C8. Put plainly: Competitive inhibition of CYP2C8 in human liver microsomes assessed as rosiglitazone demethylation after 20 mins by LC-MS/MS analysis.

Chain of Cytochrome P450 2C9 (P11712 whole entry): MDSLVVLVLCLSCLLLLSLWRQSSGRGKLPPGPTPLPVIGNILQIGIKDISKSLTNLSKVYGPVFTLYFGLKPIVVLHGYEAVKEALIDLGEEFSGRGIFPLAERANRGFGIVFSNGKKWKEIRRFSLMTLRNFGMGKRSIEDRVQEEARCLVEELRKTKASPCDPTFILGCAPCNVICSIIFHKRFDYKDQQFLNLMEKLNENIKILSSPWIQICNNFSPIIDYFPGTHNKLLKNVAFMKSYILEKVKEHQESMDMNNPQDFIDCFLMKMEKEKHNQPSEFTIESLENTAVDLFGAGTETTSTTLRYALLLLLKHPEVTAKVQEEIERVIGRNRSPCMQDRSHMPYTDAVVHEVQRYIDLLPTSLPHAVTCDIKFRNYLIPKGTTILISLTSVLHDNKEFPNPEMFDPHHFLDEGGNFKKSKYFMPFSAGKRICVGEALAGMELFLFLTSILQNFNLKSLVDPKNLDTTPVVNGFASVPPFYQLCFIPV
Chain of Cytochrome P450 2C19 (P33261 whole entry): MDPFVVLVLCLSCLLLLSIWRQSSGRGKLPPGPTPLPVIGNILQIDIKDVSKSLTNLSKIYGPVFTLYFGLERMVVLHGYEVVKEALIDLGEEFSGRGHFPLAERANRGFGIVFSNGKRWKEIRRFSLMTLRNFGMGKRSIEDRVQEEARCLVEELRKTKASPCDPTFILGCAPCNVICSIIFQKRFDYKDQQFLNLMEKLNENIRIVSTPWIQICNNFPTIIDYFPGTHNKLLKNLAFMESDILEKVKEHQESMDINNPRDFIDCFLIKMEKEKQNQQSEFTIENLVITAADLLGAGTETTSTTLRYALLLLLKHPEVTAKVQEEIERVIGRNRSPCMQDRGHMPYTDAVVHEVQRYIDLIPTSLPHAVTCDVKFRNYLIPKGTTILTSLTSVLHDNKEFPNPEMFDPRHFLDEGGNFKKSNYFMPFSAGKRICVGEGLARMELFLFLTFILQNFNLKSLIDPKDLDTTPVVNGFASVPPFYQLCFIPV
T1 sequence (P08684 whole entry): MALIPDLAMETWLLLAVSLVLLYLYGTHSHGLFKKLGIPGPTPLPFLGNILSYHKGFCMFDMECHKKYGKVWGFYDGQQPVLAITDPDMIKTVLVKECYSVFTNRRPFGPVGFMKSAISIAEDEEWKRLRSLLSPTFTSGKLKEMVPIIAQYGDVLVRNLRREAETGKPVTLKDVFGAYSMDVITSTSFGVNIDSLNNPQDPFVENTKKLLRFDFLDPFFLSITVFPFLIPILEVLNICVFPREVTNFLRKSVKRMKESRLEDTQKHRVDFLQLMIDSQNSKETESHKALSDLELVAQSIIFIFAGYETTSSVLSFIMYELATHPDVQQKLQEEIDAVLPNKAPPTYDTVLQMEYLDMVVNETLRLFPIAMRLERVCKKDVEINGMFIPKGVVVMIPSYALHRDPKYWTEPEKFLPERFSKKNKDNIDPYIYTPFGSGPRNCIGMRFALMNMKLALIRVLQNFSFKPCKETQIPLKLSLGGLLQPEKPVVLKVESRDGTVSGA
Chain of Cytochrome P450 2D6 (P10635 whole entry): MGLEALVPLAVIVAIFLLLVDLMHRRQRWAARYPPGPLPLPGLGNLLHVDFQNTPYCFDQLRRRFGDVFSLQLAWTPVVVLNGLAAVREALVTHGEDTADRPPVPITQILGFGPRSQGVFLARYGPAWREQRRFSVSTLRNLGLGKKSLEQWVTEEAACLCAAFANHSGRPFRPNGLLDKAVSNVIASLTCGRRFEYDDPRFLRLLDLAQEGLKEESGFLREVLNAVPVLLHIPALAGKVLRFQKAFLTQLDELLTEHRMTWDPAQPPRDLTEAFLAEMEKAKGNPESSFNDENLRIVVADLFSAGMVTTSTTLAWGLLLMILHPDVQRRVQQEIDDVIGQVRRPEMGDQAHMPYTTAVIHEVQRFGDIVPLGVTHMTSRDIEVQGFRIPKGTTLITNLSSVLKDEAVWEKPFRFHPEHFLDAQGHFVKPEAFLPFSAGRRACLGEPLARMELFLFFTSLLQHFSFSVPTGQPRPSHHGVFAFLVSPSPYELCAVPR
Chain of Cytochrome P450 2E1 (P05181 whole entry): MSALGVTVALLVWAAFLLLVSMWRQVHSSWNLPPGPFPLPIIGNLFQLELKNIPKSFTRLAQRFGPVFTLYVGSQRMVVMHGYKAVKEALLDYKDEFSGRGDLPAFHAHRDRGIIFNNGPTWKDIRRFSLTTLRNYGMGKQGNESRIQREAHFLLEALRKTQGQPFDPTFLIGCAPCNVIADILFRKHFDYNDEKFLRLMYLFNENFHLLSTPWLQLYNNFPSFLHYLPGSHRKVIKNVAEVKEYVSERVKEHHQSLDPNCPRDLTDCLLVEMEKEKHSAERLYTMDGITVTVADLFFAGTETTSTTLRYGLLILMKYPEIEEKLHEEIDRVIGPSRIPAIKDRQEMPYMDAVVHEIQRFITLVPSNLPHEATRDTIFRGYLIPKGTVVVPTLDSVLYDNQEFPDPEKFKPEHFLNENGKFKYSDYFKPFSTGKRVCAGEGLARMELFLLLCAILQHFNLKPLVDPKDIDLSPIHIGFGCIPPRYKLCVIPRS

Regarding `CC(C)(C)NC(=O)c1ccc(Oc2cc(F)c(CC(=O)O[C@@H]3O[C@H](C(=O)O)[C@@H](O)[C@H](O)[C@H]3O)cc2Cl)c(NS(=O)(=O)c2ccc(C3CC3)cc2Cl)c1`, the Ki in data set [1] is over 30 µM; in data set [2] it was over 30 µM; in data set [3] it was over 30 µM; in data set [6] it was over 30 µM; in data set [7], 7.3 µM; in [8] it was over 30 µM. For the same compound, the Ki in data set [9], in [10] and in data set [11] was over 30 µM throughout. Moreover, the Drug metabolism result in data set [4] was “metabolite_detected”. Moreover, the S50 in data set [5] amounted to 218.4 µM. Further, the Vmax in [5] came out at 3.45 pmol/min/mg.

Consider `CC(C)(C)NC(=O)c1ccc(Oc2cc(F)c(CC(=O)O)cc2Cl)c(NS(=O)(=O)c2ccc(C3CC3)cc2Cl)c1` [VIDUPIPRANT], for which the IC50 in data set [1], in data set [2], in data set [3], in data set [6], in data set [8] and in data set [9] was at least 30 µM each time. The IC50 in [10] and in data set [11] was at least 30 µM throughout. Besides, the Ki was over 30 µM in data set [1]; over 30 µM in data set [2]; over 30 µM in data set [3]; 6 µM in data set [12]; over 30 µM in data set [6]; 1.8 µM in data set [7]. Also, the Ki in data set [8], in data set [9], in data set [10] and in data set [11] was over 30 µM in each case.
